Laboratory results from patent US9938269B2, “Inhibitor compounds of phosphodiesterase type 10A” (ABBVIE INC., priority 2011, dated 2018).
Counter-ions that a name gives are not always drawn.

Key:
[1] = in vitro; conditions: rat, microsomes, pH 7.4
[2] = in vitro; conditions: human, microsomes, pH 7.4
[3] = target: T1, PDE10A (human) (Homo sapiens, UniProt Q9Y233); experiment: Measurement of PDE activity (HTRF cAMP kit), human PDE10A; assay type: biochemical; conditions: PDE enzymatic reaction, substrate 20 nM for PDE10, 60 minutes at 29 C
T1 construct: purchased BPS Bioscience
T1 sequence (Q9Y233 whole entry): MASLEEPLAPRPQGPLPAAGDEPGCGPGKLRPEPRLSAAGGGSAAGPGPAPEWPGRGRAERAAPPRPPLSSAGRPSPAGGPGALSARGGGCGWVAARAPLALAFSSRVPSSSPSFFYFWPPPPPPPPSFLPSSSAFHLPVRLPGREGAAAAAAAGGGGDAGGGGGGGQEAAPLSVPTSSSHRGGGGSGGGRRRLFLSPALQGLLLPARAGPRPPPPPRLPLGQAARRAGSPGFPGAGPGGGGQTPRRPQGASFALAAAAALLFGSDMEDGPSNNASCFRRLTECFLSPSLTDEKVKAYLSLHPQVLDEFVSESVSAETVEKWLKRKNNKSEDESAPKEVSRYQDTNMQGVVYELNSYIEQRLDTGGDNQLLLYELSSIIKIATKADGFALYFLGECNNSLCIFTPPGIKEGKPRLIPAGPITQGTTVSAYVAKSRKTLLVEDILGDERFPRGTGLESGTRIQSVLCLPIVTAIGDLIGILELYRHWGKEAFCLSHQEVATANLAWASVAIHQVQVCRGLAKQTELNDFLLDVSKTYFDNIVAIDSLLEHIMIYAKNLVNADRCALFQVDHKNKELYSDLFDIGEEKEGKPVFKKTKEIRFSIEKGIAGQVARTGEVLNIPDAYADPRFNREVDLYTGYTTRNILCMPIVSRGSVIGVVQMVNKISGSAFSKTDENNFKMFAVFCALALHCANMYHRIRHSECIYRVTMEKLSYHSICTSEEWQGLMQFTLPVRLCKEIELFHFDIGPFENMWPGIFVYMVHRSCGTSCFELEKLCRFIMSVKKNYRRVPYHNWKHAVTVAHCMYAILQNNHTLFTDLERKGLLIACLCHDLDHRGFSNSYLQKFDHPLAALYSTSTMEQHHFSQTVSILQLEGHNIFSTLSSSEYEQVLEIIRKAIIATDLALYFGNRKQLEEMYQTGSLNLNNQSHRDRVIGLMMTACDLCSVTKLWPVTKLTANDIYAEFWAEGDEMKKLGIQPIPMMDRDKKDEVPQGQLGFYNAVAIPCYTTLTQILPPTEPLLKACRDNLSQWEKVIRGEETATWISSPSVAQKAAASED
Summary of the method: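 Recombinant human PDE10A (10–250 pM range across PDEs) with 20 nM cAMP substrate in 20 mM Tris-HCl pH 7.5, 10 mM MgCl2, 0.1% BSA, compound pre-mixed with enzyme. Ran 60 min at 29 °C. Remaining cAMP read by HTRF, converted to % of uninhibited activity, and IC50 fitted.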

[4] = after systemic administration; cited from earlier work
[5] = test system: hyperactivity in rats induced by PCP; conditions: cited from earlier work
[6] = test system: catalepsy in rats; conditions: cited from earlier work
[7] = test system: amphetamine-induced hyperactivity; conditions: rat, in vivo; cited from earlier work
[8] = Determination of the microsomal half-life, human liver microsomes; conditions: human, liver microsomes, pH 7.4
[9] = Determination of the microsomal half-life, rat liver microsomes; conditions: rat, liver microsomes, pH 7.4

Row | Structure (SMILES) | IC50 [3] [nM] | microsomal CLint at 0.5 μM [8] [µL/min/mg] | microsomal CLint at 0.5 μM [9] [µL/min/mg] | further results
1 | O=C1c2c(cccc2N2C3CCC2CNC3)CN1CCc1ccc2ccccc2n1 [Example 103, 7-(3,8-Diaza-bicyclo[3.2.1]oct-8-yl)-2-(2-quinolin-2-yl-ethyl)-2,3-dihydro-isoindol-1-one] | 200 to 500 | – | – | microsomal CLint at 0.5 μM [1]: < 100 µL/min/mg; microsomal CLint at 0.5 μM [2]: < 100 µL/min/mg
2 | COc1ccc(Cc2nccc3cc(OC)c(OC)cc23)cc1OC [Papaverine, papaverine] | – | – | – | exposure half-life [4]: very short; hyperactivity induced by PCP [5]: reduced hyperactivity; catalepsy on its own ([6]; papaverine alone): did not cause catalepsy on its own; cataleptic effect of the D2 receptor antagonist haloperidol ([6]; together with haloperidol): potentiated the cataleptic effect; reduction of amphetamine-induced hyperactivity [7]: insignificant
3 | Cc1cnc(CCN2Cc3nccc(N4CCOCC4)c3C2=O)cc1C [compound 520, 6-[2-(4,5-Dimethyl-2-pyridyl)ethyl]-4-morpholino-7H-pyrrolo[3,4-b]pyridin-5-one] | 100 to 200 | < 100 | 100 to 220 | –
4 | Cc1ccnc(CCN2Cc3nccc(N4CCOCC4)c3C2=O)c1 [compound 521, 6-[2-(4-Methyl-2-pyridyl)ethyl]-4-morpholino-7H-pyrrolo[3,4-b]pyridin-5-one] | 200 to 500 | < 100 | < 100 | –
5 | Cc1cccnc1CCN1Cc2nccc(N3CCOCC3)c2C1=O [compound 522, 6-[2-(3-Methyl-2-pyridyl)ethyl]-4-morpholino-7H-pyrrolo[3,4-b]pyridin-5-one] | 100 to 200 | < 100 | < 100 | –
6 | Cc1occc1-c1ccnc2c1C(=O)N(CCc1cn3ccccc3n1)C2 [compound 524, 6-(2-Imidazo[1,2-a]pyridin-2-ylethyl)-4-(2-methyl-3-furyl)-7H-pyrrolo[3,4-b]pyridin-5-one] | 100 to 200 | 100 to 220 | > 220 | –
7 | O=C1c2c(-c3ccoc3)ccnc2CN1CCc1cn2cc(F)ccc2n1 [compound 526, 6-[2-(6-Fluoroimidazo[1,2-a]pyridin-2-yl)ethyl]-4-(3-furyl)-7H-pyrrolo[3,4-b]pyridin-5-one] | < 100 | < 100 | 100 to 220 | –
8 | COc1ccnc2c1C(=O)N(CCc1ccc3ccccc3n1)C2 [compound 528, 4-Methoxy-6-(2-quinolin-2-yl-ethyl)-6,7-dihydro-pyrrolo[3,4-b]pyridin-5-one] | < 100 | < 100 | < 100 | –
9 | CN(C)CCOc1ccc(-c2ccncc2)c2c1CN(CCc1ccc3ccccc3n1)C2=O [compound 529, 4-(2-Dimethylamino-ethoxy)-7-pyridin-4-yl-2-(2-quinolin-2-yl-ethyl)-2,3-dihydro-isoindol-1-one] | < 100 | < 100 | < 100 | –
10 | O=C1c2c(N3CCC(O)CC3)ccnc2CN1CCc1ccc2ccccc2n1 [compound 530, 4-(4-Hydroxy-piperidin-1-yl)-6-(2-quinolin-2-yl-ethyl)-6,7-dihydro-pyrrolo[3,4-b]pyridin-5-one trifluoroacetate] | < 100 | < 100 | 100 to 220 | –
11 | COC(=O)C1CN(Cc2cccc3c2C(=O)N(CCc2ccc4ccccc4n2)C3)C1 [compound 531, 1-[3-Oxo-2-(2-quinolin-2-yl-ethyl)-2,3-dihydro-1H-isoindol-4-ylmethyl]-azetidine-3-carboxylic acid methyl ester] | < 100 | < 100 | < 100 | –
12 | O=C1c2c(-c3ccncc3F)ccnc2CN1CCc1cn2ccccc2n1 [compound 534, 4-(3-Fluoro-pyridin-4-yl)-6-(2-imidazo[1,2-a]pyridin-2-yl-ethyl)-6,7-dihydro-pyrrolo[3,4-b]pyridin-5-one] | < 100 | < 100 | < 100 | –
13 | Cc1ccc2c(c1)nc(CCN1Cc3nccc(-c4cncnc4)c3C1=O)n2C [compound 535, 6-[2-(1,5-Dimethyl-1H-benzoimidazol-2-yl)-ethyl]-4-pyrimidin-5-yl-6,7-dihydro-pyrrolo[3,4-b]pyridin-5-one] | < 100 | < 100 | < 100 | –
14 | Cc1ccc2c(c1)nc(CCN1Cc3nccc(-c4ccncc4)c3C1=O)n2C [compound 536, 6-[2-(1,5-Dimethyl-1H-benzoimidazol-2-yl)-ethyl]-4-pyridin-4-yl-6,7-dihydro-pyrrolo[3,4-b]pyridin-5-one] | < 100 | 100 to 220 | < 100 | –
15 | O=C1c2cccc(-c3cscn3)c2CN1CCc1cn2ccccc2n1 [compound 537, 2-(2-Imidazo[1,2-a]pyridin-2-ylethyl)-4-thiazol-4-yl-isoindolin-1-one] | < 100 | < 100 | 100 to 220 | –
16 | O=C1c2c(-c3cn[nH]c3)ccnc2CN1CCc1nc2ccccc2s1 [compound 538, 6-[2-(1,3-Benzothiazol-2-yl)ethyl]-4-(1H-pyrazol-4-yl)-7H-pyrrolo[3,4-b]pyridin-5-one trifluoroacetate] | < 100 | < 100 | 100 to 220 | –
17 | Cc1ccc2c(c1)nc(CCN1Cc3nccc(-c4cccnc4)c3C1=O)n2C [compound 539, 6-[2-(1,5-Dimethylbenzimidazol-2-yl)ethyl]-4-(3-pyridyl)-7H-pyrrolo[3,4-b]pyridin-5-one] | < 100 | < 100 | < 100 | –
18 | Cc1ccc2c(c1)nc(CCN1Cc3nccc(-c4ccnn4C)c3C1=O)n2C [compound 540, 6-[2-(1,5-Dimethylbenzimidazol-2-yl)ethyl]-4-(2-methylpyrazol-3-yl)-7H-pyrrolo[3,4-b]pyridin-5-one] | < 100 | < 100 | < 100 | –
19 | COc1ccc(-c2ccnc3c2C(=O)N(CCc2nc4ccccc4s2)C3)cc1 [compound 541, 6-[2-(1,3-Benzothiazol-2-yl)ethyl]-4-(4-methoxyphenyl)-7H-pyrrolo[3,4-b]pyridin-5-one trifluoroacetate] | 100 to 200 | < 100 | 100 to 220 | –
20 | O=C1c2c(-c3ccc(F)cc3)ccnc2CN1CCc1nc2ccccc2s1 [compound 542, 6-[2-(1,3-Benzothiazol-2-yl)ethyl]-4-(4-fluorophenyl)-7H-pyrrolo[3,4-b]pyridin-5-one trifluoroacetate] | 100 to 200 | < 100 | 100 to 220 | –
21 | O=C1c2c(-c3cncnc3)ccnc2CN1CCc1nc2ccccc2s1 [compound 544, 6-[2-(1,3-Benzothiazol-2-yl)ethyl]-4-pyrimidin-5-yl-7H-pyrrolo[3,4-b]pyridin-5-one] | 100 to 200 | < 100 | < 100 | –
22 | O=C1c2c(OCF)ccc(-c3cncnc3)c2C(=O)N1CCc1cn2ccccc2n1 [compound 545, 4-(Fluoromethoxy)-2-(2-imidazo[1,2-a]pyridin-2-ylethyl)-7-pyrimidin-5-yl-isoindoline-1,3-dione] | < 100 | < 100 | < 100 | –
23 | COc1ccc(-c2cncnc2)c2c1C(=O)N(CCc1cn3ccccc3n1)C2 [compound 549, 2-(2-Imidazo[1,2-a]pyridin-2-yl-ethyl)-7-methoxy-4-pyrimidin-5-yl-2,3-dihydro-isoindol-1-one trifluoroacetate] | < 100 | < 100 | < 100 | –
24 | O=C1c2c(N3CCOCC3)ccnc2CN1CCc1ccccn1 [compound 550, 4-Morpholino-6-[2-(2-pyridyl)ethyl]-7H-pyrrolo[3,4-b]pyridin-5-one] | 200 to 500 | < 100 | < 100 | –
25 | Cc1ccc(CCN2Cc3nccc(N4CCOCC4)c3C2=O)nc1 [compound 551, 6-[2-(5-Methyl-2-pyridyl)ethyl]-4-morpholino-7H-pyrrolo[3,4-b]pyridin-5-one] | < 100 | < 100 | < 100 | –
26 | CCc1ccn2cc(CCN3Cc4nccc(-c5ccncc5)c4C3=O)nc2c1 [compound 552, 6-[2-(7-Ethylimidazo[1,2-a]pyridin-2-yl)ethyl]-4-(4-pyridyl)-7H-pyrrolo[3,4-b]pyridin-5-one] | < 100 | < 100 | 100 to 220 | –
27 | COc1cccc(CCN2Cc3nccc(-c4ccncc4)c3C2=O)n1 [compound 553, 6-[2-(6-Methoxy-2-pyridyl)ethyl]-4-(4-pyridyl)-7H-pyrrolo[3,4-b]pyridin-5-one] | < 100 | 100 to 220 | 100 to 220 | –
28 | Cc1ccc(CCN2Cc3nccc(N4CCOCC4)c3C2=O)nc1C [compound 554, 6-[2-(5,6-Dimethyl-2-pyridyl)ethyl]-4-morpholino-7H-pyrrolo[3,4-b]pyridin-5-one] | < 100 | 100 to 220 | 100 to 220 | –
29 | CCc1ccn2cc(CCN3Cc4nccc(N5CCOCC5)c4C3=O)nc2c1 [compound 555, 6-[2-(7-Ethylimidazo[1,2-a]pyridin-2-yl)ethyl]-4-morpholino-7H-pyrrolo[3,4-b]pyridin-5-one] | < 100 | 100 to 220 | < 100 | –
